From paper PMC10794144, “A novel antibiotic class targeting the lipopolysaccharide transporter” (Nature, 2024)
In brackets after ≈: the same amount, converted by molar mass. Like-named read-outs stand apart in the source and are kept apart here.

What was measured:
[1] = system: P. aeruginosa; experiment: MIC versus efflux impaired and porin deficient strains; type: cell-based, Pseudomonas aeruginosa
Description: (§1) MIC determinations were performed using the broth microdilution method and in line with CLSI guidelines M07 and M100 (refs. [37],[38]). Bacterial inocula were prepared by diluting a 0.5 McFarland suspension in CAMHB or lysogeny broth (LB) specifically for A. baylyi isolates. […] MIC values of all of the tested antibiotics were read as the lowest compound concentration inhibiting bacterial growth by naked eye or beyond which the OD600 ceased to decrease.

[2] = Aqueous solubility; type: physicochemical; details: pH 1–9
[3] = system: A. baylyi ADP1 (ATCC 33305); experiment: MIC of constructed lptF mutants in LB, OD600; type: cell-based, Acinetobacter baylyi
Description: as §1
Culture, genetic manipulation and MIC measurements of A. baylyi ADP1 were conducted according to previously reported procedures[56],[57].

[4] = system: A. baylyi LptB2FGC; experiment: LPS-release assay, proteoliposomes to LptA; type: biochemical, Acinetobacter baylyi
Description: Proteoliposomes were prepared as described previously. Aqueous E. coli polar lipid extract (Avanti Polar Lipids) (30 mg ml^−1) and aqueous LPS from E. coli EH100 (Ra mutant; Sigma-Aldrich) (2 mg ml^−1) were sonicated briefly for homogenization. A mixture of 20 mM Tris-HCl (pH 8.0), 150 mM NaCl, 7.5 mg ml^−1 E. coli polar lipids, 0.5 mg ml^−1 LPS and 0.25% DDM was prepared and kept on ice for 10 min. Purified LptB2FGC was added to a final concentration of 0.86 μM, and the mixture was left on ice for 20 min. The mixture was diluted 100-fold with cold 20 mM Tris-HCl (pH 8.0) and 150 mM NaCl and kept on ice for 20 min. The proteoliposomes were pelleted (300,000g, 2 h, 4 °C), resuspended in 20 mM Tris-HCl (pH 8.0) and 150 mM NaCl, diluted 100× and centrifuged (300,000g, 2 h, 4 °C). The pellets were resuspended in a mixture of 20 mM Tris-HCl (pH 8.0), 150 mM NaCl and 10% glycerol (250 μl per 100 μl of the original predilution solution), homogenized by sonication, flash-frozen and stored at −80 °C until use.
The levels of release of LPS from proteoliposomes to LptA were measured as previously described. Assays used 60% proteoliposomes (by volume) in a solution containing 50 mM Tris-HCl (pH 8.0), 500 mM NaCl, 10% glycerol and 2 µM LptA^I36pBPA. Reaction mixtures were incubated with drug for 10 min at room temperature, as applicable. […]

[5] = system: A. baumannii MDR isolates; experiment: Single-step spontaneous mutation frequency; type: cell-based, Acinetobacter baumannii
Description: Molten Mueller–Hinton agar (19 ml) supplemented with 20% human serum was added to 1 ml of compound at 20× the final concentration, poured immediately into Petri dishes (100 mm diameter) and gently mixed. Then, 2–3 colonies from agar plates were inoculated into CAMHB and incubated overnight under shaking (150 rpm). […] The agar plates were incubated aerobically at 35 ± 2 °C.

[6] = Human plasma precipitation assay; design: key: 0: none; 1: mild; 2: moderate; 3: marked; details: observed only at 2 mg/mL (0.125–2 mg/mL tested)
Description: For the plasma precipitation assay, test item formulations of compounds were diluted as follows with the vehicle (0.9% aqueous sodium chloride solution): undiluted, 1:2, 1:4, 1:8 and 1:16. These serial dilutions were then added into test tubes containing 0.5 ml of plasma to give a final assay volume of 1 ml with a final concentration of 4 mg ml^−1 assay volume or less. After centrifugation of the samples (1,811g; 10 min; at room temperature), plasma precipitation was visually determined by scoring the resulting pellet (score: 0, none; 1, mild; 2, moderate; 3, marked).

Question: With `CN1C(=O)[C@H](CCCCN)NC(=O)[C@H](CCCN)NCc2cccnc2Sc2c(Cl)ccc(Cl)c2CNC(=O)[C@@H]1Cc1c[nH]c2ccccc12` [RO7075573] as the compound, how does the MIC ([1]; P. aeruginosa PAOD1, porin deficient, PAO1 Δ oprD) read?
Answer: >64 µg/mL

Question: And the MIC ([1]; Pseudomonas aeruginosa, P. aeruginosa PAO1, WT, read-out: MIC)?
Answer: > 64 µg/mL

Question: And the MIC ([1]; Pseudomonas aeruginosa, P. aeruginosa PAO397, efflux impaired and porin deficient, read-out: MIC)?
Answer: 64 µg/mL (≈ 86.5 µM)

Question: For `CN1C(=O)[C@H](CCCCN)NC(=O)[C@H](CCCN)NCc2cccnc2Sc2cccc(-c3ccc(C(=O)O)cc3)c2CNC(=O)[C@@H]1Cc1c[nH]c2ccccc12` [zosurabalpin], which aqueous solubility [2] is on record?
Answer: > 100 mg/mL

Question: And the “Fold MIC increase” value ([3]; constructed LptF (E249K&I317N))?
Answer: > 700

Question: And the “Fold MIC increase” value ([3]; constructed LptF E249K)?
Answer: 242

Question: What about the “Fold MIC increase” value ([3]; constructed LptF I317N) of the same compound?
Answer: 128

Question: And the “Fold MIC increase” value ([3]; constructed LptF K320T)?
Answer: 20

Question: What about the “Fold MIC increase” value ([3]; constructed LptF R322C) of the same compound?
Answer: 9

Question: What about the LPS transport ([4]; complexes with LptF E249K or I317N) of the same compound?
Answer: did not inhibit LPS transport

Question: And the “LPS extraction to LptA” value ([4]; wild-type LptB2FGC proteoliposomes, biological triplicate)?
Answer: blocked LPS extraction at concentrations comparable to growth inhibitory concentrations

Question: And the PROPORTION_R ([5]; A. baumannii ACC00445, inoculum 3.30E+08, selection 2xMIC, 0.5 ug/ml)?
Answer: 1.70E-07

Question: What about the PROPORTION_R ([5]; A. baumannii ACC00445, inoculum 3.30E+08, selection 4xMIC, 1 ug/ml) of the same compound?
Answer: 6.50E-08

Question: And the PROPORTION_R ([5]; A. baumannii ACC00445, inoculum 3.30E+08, selection 8xMIC, 2 ug/ml)?
Answer: 3.10E-09

Question: And the PROPORTION_R ([5]; A. baumannii ACC00445, inoculum 3.30E+08, selection 16xMIC, 4 ug/ml)?
Answer: <3.1E-09

Question: And the PROPORTION_R ([5]; A. baumannii ACC00535, inoculum 3.50E+08, selection 4xMIC, 0.5 ug/ml)?
Answer: 1.50E-07

Question: What about the PROPORTION_R ([5]; A. baumannii ACC00535, inoculum 3.50E+08, selection 8xMIC, 1 ug/ml) of the same compound?
Answer: 8.90E-08

Question: What about the PROPORTION_R ([5]; A. baumannii ACC00535, inoculum 3.50E+08, selection 16xMIC, 2 ug/ml) of the same compound?
Answer: <2.9E-09

Question: What about the PROPORTION_R ([5]; A. baumannii ACC01073, inoculum 2.80E+08, selection 2xMIC, 2 ug/ml) of the same compound?
Answer: 1.10E-08

Question: And the PROPORTION_R ([5]; A. baumannii ACC01073, inoculum 2.80E+08, selection 4xMIC, 4 ug/ml)?
Answer: 7.30E-09

Question: And the PROPORTION_R ([5]; A. baumannii ACC01073, inoculum 2.80E+08, selection 8xMIC, 8 ug/ml)?
Answer: <3.6E-09

Question: What about the PROPORTION_R ([5]; A. baumannii ACC01073, inoculum 2.80E+08, selection 16xMIC, 16 ug/ml) of the same compound?
Answer: <3.6E-09

Question: What about the PROPORTION_R ([5]; A. baumannii ACC01077, inoculum 2.80E+08, selection 2xMIC, 0.5 ug/ml) of the same compound?
Answer: 3.60E-09

Question: What about the PROPORTION_R ([5]; A. baumannii ACC01077, inoculum 2.80E+08, selection 4xMIC, 1 ug/ml) of the same compound?
Answer: <3.6E-09

Question: And the PROPORTION_R ([5]; A. baumannii ACC01077, inoculum 2.80E+08, selection 8xMIC, 2 ug/ml)?
Answer: <3.6E-09

Question: And the PROPORTION_R ([5]; A. baumannii ACC01077, inoculum 2.80E+08, selection 16xMIC, 4 ug/ml)?
Answer: <3.6E-09

Question: What about the PROPORTION_R ([5]; A. baumannii ACC01085_CDC AR307, inoculum 5.50E+08, selection 2xMIC, 0.5 ug/ml) of the same compound?
Answer: 1.10E-06

Question: And the PROPORTION_R ([5]; A. baumannii ACC01085_CDC AR307, inoculum 5.50E+08, selection 4xMIC, 1 ug/ml)?
Answer: <1.8E-09

Question: What about the PROPORTION_R ([5]; A. baumannii ATCC BAA-747, inoculum 7.50E+07, selection 8xMIC, 0.5 ug/ml) of the same compound?
Answer: <1.3E-08

Question: What about the PROPORTION_R ([5]; A. baumannii ATCC BAA-747, inoculum 7.50E+07, selection 16xMIC, 1 ug/ml) of the same compound?
Answer: <1.3E-08

Question: And the PROPORTION_R ([5]; A. baumannii ROB08706, inoculum 5.00E+07, selection 2xMIC, 2 ug/ml)?
Answer: 4.00E-08

Question: And the PROPORTION_R ([5]; A. baumannii ROB08706, inoculum 5.00E+07, selection 4xMIC, 4 ug/ml)?
Answer: 6.00E-08

Question: What about the PROPORTION_R ([5]; A. baumannii ROB08706, inoculum 5.00E+07, selection 8xMIC, 8 ug/ml) of the same compound?
Answer: <2.0E-08

Question: And the PROPORTION_R ([5]; A. baumannii ROB08706, inoculum 5.00E+07, selection 16xMIC, 16 ug/ml)?
Answer: <2.0E-08

Question: And the PROPORTION_R ([5]; A. baumannii ROB08708, inoculum 2.40E+08, selection 4xMIC, 0.5 ug/ml)?
Answer: 1.10E-07

Question: What about the PROPORTION_R ([5]; A. baumannii ROB08708, inoculum 2.40E+08, selection 8xMIC, 1 ug/ml) of the same compound?
Answer: <4.2E-09

Question: What about the PROPORTION_R ([5]; A. baumannii ROB08708, inoculum 2.40E+08, selection 16xMIC, 2 ug/ml) of the same compound?
Answer: <4.2E-09

Question: And the “Single-step spontaneous mutation frequency” value ([5]; ACC00445, 2× MIC)?
Answer: 2 × 10^−7

Question: And the “Single-step spontaneous mutation frequency” value ([5]; ACC00445, 4× MIC)?
Answer: 7 × 10^−8

Question: What about the “Single-step spontaneous mutation frequency” value ([5]; ACC00445, 8× MIC) of the same compound?
Answer: 3 × 10^−9

Question: And the “Single-step spontaneous mutation frequency” value ([5]; ACC00445, 16× MIC)?
Answer: <3 × 10^−9

Question: And the “Single-step spontaneous mutation frequency” value ([5]; ACC00535, 2× MIC)?
Answer: 2 × 10^−7

Question: And the “Single-step spontaneous mutation frequency” value ([5]; ACC00535, 4× MIC)?
Answer: 2 × 10^−7

Question: What about the “Single-step spontaneous mutation frequency” value ([5]; ACC00535, 8× MIC) of the same compound?
Answer: 9 × 10^−8

Question: What about the “Single-step spontaneous mutation frequency” value ([5]; ACC00535, 16× MIC) of the same compound?
Answer: <3 × 10^−9

Question: What about the “Single-step spontaneous mutation frequency” value ([5]; ACC01073, 2× MIC) of the same compound?
Answer: 1 × 10^−8

Question: And the “Single-step spontaneous mutation frequency” value ([5]; ACC01073, 4× MIC)?
Answer: 7 × 10^−9

Question: What about the “Single-step spontaneous mutation frequency” value ([5]; ACC01073, 8× MIC) of the same compound?
Answer: <4 × 10^−9

Question: And the “Single-step spontaneous mutation frequency” value ([5]; ACC01073, 16× MIC)?
Answer: <4 × 10^−9

Question: What about the “Single-step spontaneous mutation frequency” value ([5]; ACC01077, 2× MIC) of the same compound?
Answer: 4 × 10^−9

Question: What about the “Single-step spontaneous mutation frequency” value ([5]; ACC01077, 4× MIC) of the same compound?
Answer: <4 × 10^−9

Question: And the “Single-step spontaneous mutation frequency” value ([5]; ACC01077, 8× MIC)?
Answer: <4 × 10^−9

Question: What about the “Single-step spontaneous mutation frequency” value ([5]; ACC01077, 16× MIC) of the same compound?
Answer: <4 × 10^−9

Question: What about the “Single-step spontaneous mutation frequency” value ([5]; ACC01085/AR0307, 2× MIC) of the same compound?
Answer: 1 × 10^−6

Question: And the “Single-step spontaneous mutation frequency” value ([5]; ACC01085/AR0307, 4× MIC)?
Answer: <2 × 10^−9

Question: What about the “Single-step spontaneous mutation frequency” value ([5]; ATCC BAA-747, 2× MIC) of the same compound?
Answer: 2 × 10^−7

Question: What about the “Single-step spontaneous mutation frequency” value ([5]; ATCC BAA-747, 4× MIC) of the same compound?
Answer: <1 × 10^−8

Question: What about the “Single-step spontaneous mutation frequency” value ([5]; ATCC BAA-747, 8× MIC) of the same compound?
Answer: <1 × 10^−8

Question: What about the “Single-step spontaneous mutation frequency” value ([5]; ATCC BAA-747, 16× MIC) of the same compound?
Answer: <1 × 10^−8

Question: And the “Single-step spontaneous mutation frequency” value ([5]; ROB08706, 2× MIC)?
Answer: 4 × 10^−8

Question: And the “Single-step spontaneous mutation frequency” value ([5]; ROB08706, 4× MIC)?
Answer: 6 × 10^−8

Question: What about the “Single-step spontaneous mutation frequency” value ([5]; ROB08706, 8× MIC) of the same compound?
Answer: <2 × 10^−8

Question: What about the “Single-step spontaneous mutation frequency” value ([5]; ROB08706, 16× MIC) of the same compound?
Answer: <2 × 10^−8

Question: And the “Single-step spontaneous mutation frequency” value ([5]; ROB08708, 2× MIC)?
Answer: 2 × 10^−7

Question: And the “Single-step spontaneous mutation frequency” value ([5]; ROB08708, 4× MIC)?
Answer: 1 × 10^−7

Question: What about the “Single-step spontaneous mutation frequency” value ([5]; ROB08708, 8× MIC) of the same compound?
Answer: <4 × 10^−9

Question: What about the “Single-step spontaneous mutation frequency” value ([5]; ROB08708, 16× MIC) of the same compound?
Answer: <4 × 10^−9

Question: And the Precipitation score [6]?
Answer: Observed only at 2 mg/mL^6 (1)
